Reference: EP4014997A1, “STARD1 INHIBITORS FOR THE TREATMENT OF LYSOSOMAL DISORDERS” (Consejo Superior de Investigaciones Científicas (CSIC), priority 2020, dated 2022)

Legend:
patients = details: NPC patients; cited from earlier work
[1] = test system: ER stress markers (BIP, PDI and CHOP); assay: Western blot of ER stress markers in human fibroblasts; format: cell-based; details: control Npc+/+ fibroblasts
Protocol: 100mg of liver were homogenized with a pestle homogenizer in 1ml of homobuffer (70mM saccharose, 220mM mannitol, 2mM Tris-HCI pH 7.4, 0,1mM EDTA, 0.1% fatty acid free BSA) supplemented with protease and phosphatase inhibitors (Roche). Liver homogenates were diluted 4 times with RIPA lysis buffer (Sigma) with anti-proteases and anti-phosphatases. Cells were washed with PBS and lysed with ice-cold RIPA lysis buffer supplemented with protease and phosphatase inhibitors. Samples were incubated 15min at 4°C, vortexed and spinned down for 5min at 10000rpm. All supernatants were collected and quantified for protein concentration using Quick-Bradford reagent (Bio-Rad) and 20-50µg of protein were subjected to 4-12% SDS-polyacrylamide gel electrophoresis (SDS-PAGE) (Bio-Rad, XT-Criterion). Proteins were electrotransferred at 4°C onto Hybond ECL nitrocellulose membranes (Amersham) and 5% BSA solution in TBS-Tween was used to block the membranes for 1h at room temperature. […] Images were digitally captured by LAS4000 (GE Healthcare) and optical density was analyzed with ImageJ software.

| Compound | life span of patients (patients) | markers of ER stress (BIP, PDI and CHOP) [1] |
| --- | --- | --- |
| CCCCN1C[C@H](O)[C@@H](O)[C@H](O)[C@H]1CO [miglustat] | extends the life span of patients |  |
| tunicamycin |  | induced markers of ER stress |
